Assay results taken from US20030047295A1, “Bio-bleaching of pulp using laccase, mediator, and chain transfer agent” (priority 2001, published 2003).

Assay: Pulp bleaching, delignification measured as Kappa number (TAPPI T236 cm-85)
Settings: for Kappa No.: 2 g pulp, starting Kappa 31
Method: Delignification of the pulp was measured as the change in Kappa number according to the TAPPI method T236 cm-85. A typical procedure is as follows. A known mass of paper pulp (containing lignin) is reacted with an excess of potassium permanganate in an acid solution for a specified period of time to oxidize the lignin. After the reaction, the residual permanganate is determined by titration. The Kappa number is defined as the volume (ml) of 0.1N potassium permanganate consumed by 1 g of moisture-free pulp in 0.5N sulfuric acid after a ten-minute reaction time at 25° C. under conditions such that one-half of the permanganate remains unreacted. A linear relationship with the lignin content of the pulp and the measurement of the Kappa number has already been done on samples as low as 300 mg of pulp.
A softwood Kraft pulp, Kappa number 31.0, was treated with a laccase (NS51003) under the following conditions:
The dried pulp was added to 80 ml of 50 mM phosphate, pH 5.5, and disintegrated in a blender. The pulp was then transferred to a 500 ml conical flask and the blender was washed with 20 ml of the same buffer. The washed buffer and the pulp were combined. The mediator was added at 1-4% (w/w, based on the dry pulp), followed by the addition of the laccase. The pH of the pulp mixture was adjusted to 5.5 if needed. The flask was covered with an aluminum foil with holes punched through and incubated at 50° C. for 16 hrs on a rotary shaker at 200 rpm.
After the enzymatic treatment, the pulp mixture was filtered through a Buchner funnel, and the pulp was washed with water. The pulp from the control experiment was treated at the same pH and temperature as described above.
The washed pulp was then treated with an alkaline solution under the following conditions:
The filtered pulp was repulped in the alkaline solution and incubated at 70° C. for 3 hrs. The pH of the pulp mixture should be between 11.7-12.00 during the entire treatment. After the treatment, the pulp mixture was filtered through a Buchner funnel, and the pulp was washed with water extensively and then dried in a hood overnight.
The delignification of the pulp was measured as a change in Kappa Number according to TAPPI method T236 cm-85.
In this example, we used the typical pulp bleaching experiment as described above. We also used laccase as the enzyme, hardwood black liquor (HWBL) as the mediator, and two chain transfer agents (anthracene and CBr4).

[1] = laccase 100 ul plus HWBL 200 ul as mediator plus chain transfer agent 20 mg

SMILES | Kappa number reduction (in words) (0.1 ml of the 51003 laccase with the mediator) | Kappa No. (laccase 100 ul plus mediator (HBT 20 mg or HWBL 200 ul), no chain transfer agent) | Kappa No. [1]
On1nnc2ccccc21 [HBT, 1-hydroxybenzotriazole] | modest Kappa number reduction | 26.1 | 
BrC(Br)(Br)Br [CBr4, carbon tetrabromide] |  |  | 24.4
c1ccc2cc3ccccc3cc2c1 [anthracene] |  |  | 25.4
